Reference: ChEMBL document CHEMBL5150068, “Structure-Based Design of Tropane Derivatives as a Novel Series of CCR5 Antagonists with Broad-Spectrum Anti-HIV-1 Activities and Improved Oral Bioavailability” (J Med Chem, 2022)
pEC50, pIC50: −log10 of the molar value. “And” between values parts separate entries of the source, which are not always exact repeats. Equal values may be shown once.

Columns and labels:
[1] = system: Human immunodeficiency virus 1; assay: Antiviral activity against HIV-1 YU-2 (G140S/Q148H) infected in human TZM-bl cells measured after 48 hrs incubation by luciferase based analysis; assay type: functional, organism-based; conditions: Human immunodeficiency virus 1, YU-2 (G140S/Q148H)
[2] = target: C-C chemokine receptor type 5 (Homo sapiens, UniProt P51681); assay: Antagonist activity at CCR5 (unknown origin) expressed in HEK293 cells co-expressing Galpha16 assessed as intracellular calcium change incubated for 15 mins by Fluo-4 AM calcium flux assay; assay type: functional, cell-based
Cytochrome P450 2C19 = Cytochrome P450 2C19 (Homo sapiens, UniProt P33261); assay: Inhibition of CYP2C19 (unknown origin); assay type: ADME
Cytochrome P450 2D6 = Cytochrome P450 2D6 (Homo sapiens, UniProt P10635); assay: Inhibition of CYP2D6 (unknown origin); assay type: ADME
[3] = AUC (0 to infinitive) in Sprague-Dawley rat at 10 mg/kg, po measured upto 24 hrs; assay type: ADME, organism-based; parameters: dose 10 mg/kg, time < 24 hrs, route po; conditions: Sprague-Dawley, in vivo
[4] = Cytotoxicity against human HOS-CD4-CCR5 cells incubated for 48 hrs by MTT assay; assay type: toxicity, cell-based
[5] = Tmax in Sprague-Dawley rat at 10 mg/kg, po measured upto 24 hrs; assay type: ADME, organism-based; conditions: in vivo
[6] = Cytotoxicity against human TZM-bl cells incubated for 48 hrs by MTT assay; assay type: toxicity, cell-based
[7] = Cytotoxicity against human PM1 cells incubated for 48 hrs by MTT assay; assay type: toxicity, cell-based
Cytochrome P450 2C9 = Cytochrome P450 2C9 (Homo sapiens, UniProt P11712); assay: Inhibition of CYP2C9 (unknown origin); assay type: ADME
[8] = Half life in Sprague-Dawley rat at 2 mg/kg, iv measured upto 24 hrs; assay type: ADME, organism-based; conditions: Sprague-Dawley, in vivo
[9] = Cmax in Sprague-Dawley rat at 10 mg/kg, po measured upto 24 hrs; assay type: ADME, organism-based; parameters: time < 24 hrs, dose 10 mg/kg, route po; conditions: in vivo
[10] = Cytotoxicity against human PBMC cells incubated for 48 hrs by MTT assay; assay type: toxicity, cell-based
[11] = Half life in Sprague-Dawley rat at 1 mg/kg, iv measured upto 24 hrs; assay type: ADME, organism-based; conditions: in vivo
Cytochrome P450 1A2 = target: T1, Cytochrome P450 1A2 (Homo sapiens, UniProt P05177); assay: Inhibition of CYP1A2 (unknown origin); assay type: ADME
T1 sequence (P05177 whole entry): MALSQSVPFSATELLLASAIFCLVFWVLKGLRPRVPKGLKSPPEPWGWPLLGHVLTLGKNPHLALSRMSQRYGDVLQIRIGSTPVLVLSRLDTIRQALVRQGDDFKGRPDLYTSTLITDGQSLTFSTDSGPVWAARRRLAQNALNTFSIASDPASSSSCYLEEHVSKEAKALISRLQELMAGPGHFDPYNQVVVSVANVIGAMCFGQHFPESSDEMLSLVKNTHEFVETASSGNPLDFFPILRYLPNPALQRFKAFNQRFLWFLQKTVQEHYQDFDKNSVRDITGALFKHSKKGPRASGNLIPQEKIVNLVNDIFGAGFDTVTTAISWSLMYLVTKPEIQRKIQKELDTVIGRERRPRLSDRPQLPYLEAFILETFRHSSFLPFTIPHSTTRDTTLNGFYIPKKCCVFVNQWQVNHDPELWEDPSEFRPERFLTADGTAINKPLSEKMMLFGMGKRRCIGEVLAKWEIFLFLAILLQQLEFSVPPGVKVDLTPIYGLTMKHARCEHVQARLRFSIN

[12] = Clearance in Sprague-Dawley rat at 1 mg/kg, iv measured upto 24 hrs; assay type: ADME, organism-based; conditions: in vivo
[13] = system: Human immunodeficiency virus 1; assay: Antiviral activity against HIV-1 YU-2 infected in human TZM-bl cells measured after 48 hrs incubation by luciferase based analysis; assay type: functional, organism-based; conditions: tzm-bl
in vitro = conditions: human, TZM-bl cells
Description: Therapeutic index, ratio of CC50 for human TZM-bl cells to EC50 for antiviral activity against HIV-1 Ba-L

Chain of C-C chemokine receptor type 5 (P51681 whole entry): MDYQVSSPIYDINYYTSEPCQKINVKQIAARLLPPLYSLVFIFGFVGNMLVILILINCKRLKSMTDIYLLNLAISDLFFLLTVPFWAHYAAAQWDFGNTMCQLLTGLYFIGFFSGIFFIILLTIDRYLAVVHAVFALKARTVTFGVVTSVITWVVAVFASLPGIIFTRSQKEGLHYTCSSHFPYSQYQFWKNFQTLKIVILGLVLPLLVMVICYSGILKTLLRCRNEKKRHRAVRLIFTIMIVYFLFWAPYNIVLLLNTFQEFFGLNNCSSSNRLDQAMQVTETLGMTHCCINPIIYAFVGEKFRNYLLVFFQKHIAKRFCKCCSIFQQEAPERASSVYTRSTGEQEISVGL
Chain of Cytochrome P450 2C19 (P33261 whole entry): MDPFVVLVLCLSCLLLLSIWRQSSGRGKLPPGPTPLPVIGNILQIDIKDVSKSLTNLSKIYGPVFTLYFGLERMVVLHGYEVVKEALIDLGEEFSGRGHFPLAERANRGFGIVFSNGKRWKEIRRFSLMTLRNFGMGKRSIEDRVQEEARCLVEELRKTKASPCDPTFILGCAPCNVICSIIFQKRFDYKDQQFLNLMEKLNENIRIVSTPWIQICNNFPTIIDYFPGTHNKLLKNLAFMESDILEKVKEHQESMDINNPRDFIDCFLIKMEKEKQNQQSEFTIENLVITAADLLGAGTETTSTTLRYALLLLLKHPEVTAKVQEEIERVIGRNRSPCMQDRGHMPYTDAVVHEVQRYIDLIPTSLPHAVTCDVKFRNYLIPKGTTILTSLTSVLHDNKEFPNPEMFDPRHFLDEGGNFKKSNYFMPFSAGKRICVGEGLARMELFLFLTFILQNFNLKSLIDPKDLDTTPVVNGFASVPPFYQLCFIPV
Chain of Cytochrome P450 2D6 (P10635 whole entry): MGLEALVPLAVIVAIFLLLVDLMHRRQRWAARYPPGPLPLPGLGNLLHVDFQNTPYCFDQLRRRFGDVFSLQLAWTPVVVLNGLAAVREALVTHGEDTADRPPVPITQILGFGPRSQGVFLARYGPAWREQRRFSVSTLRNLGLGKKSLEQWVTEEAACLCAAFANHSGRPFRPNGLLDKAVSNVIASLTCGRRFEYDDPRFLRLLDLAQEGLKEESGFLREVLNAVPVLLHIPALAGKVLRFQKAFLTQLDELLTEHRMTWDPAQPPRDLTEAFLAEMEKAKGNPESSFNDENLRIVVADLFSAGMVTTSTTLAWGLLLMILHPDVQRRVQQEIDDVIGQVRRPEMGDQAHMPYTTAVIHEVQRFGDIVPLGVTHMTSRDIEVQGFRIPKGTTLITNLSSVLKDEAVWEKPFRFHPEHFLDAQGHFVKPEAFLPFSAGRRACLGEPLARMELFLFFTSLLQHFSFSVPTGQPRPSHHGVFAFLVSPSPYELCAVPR
Chain of Cytochrome P450 2C9 (P11712 whole entry): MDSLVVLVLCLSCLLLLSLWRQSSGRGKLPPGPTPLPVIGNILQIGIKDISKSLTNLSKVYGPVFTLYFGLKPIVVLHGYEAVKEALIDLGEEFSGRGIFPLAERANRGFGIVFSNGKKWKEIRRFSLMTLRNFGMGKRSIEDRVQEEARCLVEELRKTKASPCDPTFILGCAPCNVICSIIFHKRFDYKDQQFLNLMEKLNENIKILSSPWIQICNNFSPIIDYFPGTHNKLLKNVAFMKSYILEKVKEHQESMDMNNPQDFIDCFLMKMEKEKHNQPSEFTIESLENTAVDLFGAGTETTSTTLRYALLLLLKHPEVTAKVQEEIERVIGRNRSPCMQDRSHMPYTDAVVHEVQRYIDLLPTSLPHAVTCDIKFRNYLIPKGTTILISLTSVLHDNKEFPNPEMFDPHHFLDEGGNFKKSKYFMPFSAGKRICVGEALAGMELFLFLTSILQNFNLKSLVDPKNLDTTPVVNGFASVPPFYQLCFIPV

| pIC50 (Cytochrome P450 2C19) | pIC50 (Cytochrome P450 2D6) | AUC(0-inf) [3] [ng·h/mL] | Tmax [5] [min] | pIC50 (Cytochrome P450 2C9) | half-life [8] [min] | Cmax [9] [ng/mL] | half-life [11] [min] | pIC50 (Cytochrome P450 1A2) | clearance [12] [mL/min/kg] | Structure (SMILES) | pEC50 [1] | pIC50 [2] | CC50 at 48 h [4] [µM] | CC50 at 48 h [6] [µM] | CC50 at 48 h [7] [µM] | CC50 at 48 h [10] [µM] | pEC50 [13] | selectivity ratio (in vitro) |
| --- | --- | --- | --- | --- | --- | --- | --- | --- | --- | --- | --- | --- | --- | --- | --- | --- | --- | --- |
| – | – | – | – | – | – | – | – | – | – | CC(=O)N[C@@H](CCN1C2CCC1CC(n1c(C)nc3c1CCN(C(=O)C(C)C)C3)C2)c1cccc(F)c1 (stereo not given in full) | 8.64 | 7.72 | – | – | – | – | – | – |
| < 4.60 | < 4.60 | 12.4 | 120 | 4.84 | 54 | 5.5 | 54 | < 4.60 | 74 | Cc1nnc(C(C)C)n1[C@@H]1C[C@H]2CC[C@@H](C1)N2CC[C@H](NC(=O)C1CCC(F)(F)CC1)c1ccccc1 [MARAVIROC] | – | – | > 200 | > 200 | > 200 | > 200 | – | – |
| – | – | – | – | – | – | – | – | – | – | Cc1ccsc1[C@H](CCN1[C@@H]2CC[C@H]1C[C@H](n1c(C)nnc1C(C)C)C2)NC(=O)C1CCCC1 | – | 7.72 | – | > 200 | – | – | 7.54 and 7.11 | > 6900 |
